Experimental data: patent publication US8765944B2, “Compounds for the treatment of hepatitis C” (priority 2010, dated 2014)

System: HCV pseudoparticles
Experiment: HCV pseudoparticle infection assay (luciferase reporter, Huh7 cells)
Format: cell-based, HCV (genotype 1b E1 and E2 envelope)
Conditions: Hepatitis C virus, genotype 1b, Huh-7, 48 h, HCV pseudoparticles (genotype 1b), luciferase activity 2 days after infection

| Compound | EC50 [µM] | EC50 (class) [µM] |
| --- | --- | --- |
| O=C(NS(=O)(=O)c1ccc(Nc2nc(NC3(c4ccc(Cl)cc4)CC3)nc(OCC(F)(F)F)n2)cc1)C1(CN2CCOCC2)CC1 [Example 3003] | 0.822 | 0.1 to 1 |
| CC(C)C(=O)NS(=O)(=O)CCNC(=O)c1ccc(Nc2nc(NC3(c4ccc(Cl)cc4)CC3)nc(OCC(F)(F)F)n2)cc1 [Example 4001] | – | 0.0005 to 0.1 |
| O=C(NS(=O)(=O)C1(CN2CCOCC2)CC1)c1ccc(Nc2nc(NC3(c4ccc(Cl)cc4)CC3)nc(OCC(F)(F)F)n2)cc1 [Example 1015] | – | 0.0005 to 0.1 |
| CC(C)S(=O)(=O)NC(=O)C(C)(C)CNC(=O)c1ccc(Nc2nc(NC3(c4ccc(Cl)cc4)CC3)nc(OCC(F)(F)F)n2)cc1 [Example 2088] | – | 0.0005 to 0.1 |
| CCS(=O)(=O)NC(=O)CCCCNC(=O)c1ccc(Nc2nc(NC3(c4ccc(Cl)cc4)CC3)nc(OCC(F)(F)F)n2)cc1 [Example 2014] | – | 0.0005 to 0.1 |
| C=C[C@@H]1C[C@]1(NC(=O)CCCNC(=O)c1ccc(Nc2nc(NC3(c4ccc(Cl)cc4)CC3)nc(OCC(F)(F)F)n2)cc1)C(=O)NS(=O)(=O)C(C)(C)C [Example 2035] | – | 0.0005 to 0.1 |
| O=C(CCCNC(=O)c1ccc(Nc2nc(NC3(c4ccc(Cl)cc4)CC3)nc(OCC(F)(F)F)n2)cc1)N[C@]1(C(=O)NS(=O)(=O)C2CC2)C[C@H]1C1CC1 [Example 2036] | – | 0.0005 to 0.1 |
| CCC1(S(=O)(=O)NC(=O)C2(CNC(=O)c3ccc(Nc4nc(NC5(c6ccc(Cl)cc6)CC5)nc(OCC(F)(F)F)n4)cc3)CC2)CC1 [Example 2076] | – | 0.0005 to 0.1 |
| Cn1cnc(C[C@H](NC(=O)c2ccc(Nc3nc(NC4(c5ccc(Cl)cc5)CC4)nc(OCC(F)(F)F)n3)cc2)C(=O)N[C@]2(C(=O)NS(=O)(=O)C3CC3)C[C@H]2C2CC2)c1 [Example 8019] | – | 0.0005 to 0.1 |
| C=C[C@@H]1C[C@]1(NC(=O)CCCCNC(=O)c1ccc(Nc2nc(NC3(c4ccc(Cl)cc4)CC3)nc(OCC(F)(F)F)n2)cc1)C(=O)NS(=O)(=O)C1CCC1 [Example 2026] | – | 0.0005 to 0.1 |
| O=C(CCNC(=O)c1ccc(Nc2nc(NC3(c4ccc(Cl)cc4)CC3)nc(OCC(F)(F)F)n2)cc1)NS(=O)(=O)C1CC1 [Example 2021] | – | 0.0005 to 0.1 |
| CN(C)CC1(S(=O)(=O)NC(=O)c2ccc(Nc3nc(OCC(F)(F)F)nc(N4CCN(C(=O)c5ccccc5F)CC4)n3)cc2)CC1 [Example 8029] | – | 1 to 5 |
| CS(=O)(=O)NC(=O)CCNC(=O)CCCNC(=O)c1ccc(Nc2nc(NC3(c4ccc(Cl)cc4)CC3)nc(OCC(F)(F)F)n2)cc1 [Example 2059] | – | 0.0005 to 0.1 |
| O=C(Nc1cccnc1)OCC1(S(=O)(=O)NC(=O)c2ccc(Nc3nc(NC4(c5ccc(Cl)cc5)CC4)nc(OCC(F)(F)F)n3)cc2)CC1 [Example 1028] | 0.06 | 0.0005 to 0.1 |
| CN(C)S(=O)(=O)NC(=O)[C@@]1(NC(=O)CCCNC(=O)c2ccc(Nc3nc(NC4(c5ccc(Cl)cc5)CC4)nc(OCC(F)(F)F)n3)cc2)C[C@H]1C1CC1 [Example 2043] | – | 0.0005 to 0.1 |
| O=C(CCCCNC(=O)c1ccc(Nc2nc(NC3(c4ccc(Cl)cc4)CC3)nc(OCC(F)(F)F)n2)cc1)NC1(C(=O)NS(=O)(=O)C2CC2)CC1 [Example 2029] | – | 0.0005 to 0.1 |
| C=C[C@@H]1C[C@]1(NC(=O)CCCCNC(=O)c1ccc(Nc2nc(NC3(c4ccc(Cl)cc4)CC3)nc(OCC(F)(F)F)n2)cc1)C(=O)NS(=O)(=O)C(C)(C)C [Example 2027] | – | 0.0005 to 0.1 |
| O=C(CCCNC(=O)c1ccc(Nc2nc(NC3(c4ccc(Cl)cc4)CC3)nc(OCC(F)(F)F)n2)cc1)N[C@]1(C(=O)NS(=O)(=O)C2CC2)C[C@H]1C1CC1(F)F (stereo partly drawn) [Example 2037] | – | 0.0005 to 0.1 |
| COC(=O)NCCS(=O)(=O)NC(=O)c1ccc(Nc2nc(NC3(c4ccc(Cl)cc4)CC3)nc(OCC(F)(F)F)n2)cc1 [Example 1044] | – | 0.0005 to 0.1 |
| O=C(CCCNC(=O)c1ccc(Nc2nc(NC3(c4ccc(Cl)cc4)CC3)nc(OCC(F)(F)F)n2)cc1)NCCC(=O)NS(=O)(=O)C1CCC1 [Example 2063] | 0.0379 | 0.0005 to 0.1 |
| Cc1ccccc1S(=O)(=O)NC(=O)c1ccc(Nc2nc(NC3(c4ccc(Cl)cc4)CC3)nc(OCC(F)(F)F)n2)cc1 [Example 8012] | – | 0.0005 to 0.1 |
| C=CS(=O)(=O)NC(=O)[C@@]1(NC(=O)CCCNC(=O)c2ccc(Nc3nc(NC4(c5ccc(Cl)cc5)CC4)nc(OCC(F)(F)F)n3)cc2)C[C@H]1C1CC1 [Example 2040] | – | 0.0005 to 0.1 |
| O=C(NCC1(CN2CCCC2)CC1)c1ccc(Nc2nc(NC3(c4ccc(C(=O)NS(=O)(=O)C5CC5)cc4)CC3)nc(OCC(F)(F)F)n2)cc1 [Example 7001, N-(cyclopropylsulfonyl)-4-(1-(4-(4-((1-(pyrrolidin-1-ylmethyl)cyclopropyl)methylcarbamoyl)phenylamino)-6-(2,2,2-trifluoroethoxy)-1,3,5-triazin-2-ylamino)cyclopropyl)benzamide] | – | 0.0005 to 0.1 |
| CCCC1(S(=O)(=O)NC(=O)C(C)(C)CNC(=O)c2ccc(Nc3nc(NC4(c5ccc(Cl)cc5)CC4)nc(OCC(F)(F)F)n3)cc2)CC1 [Example 2092] | – | 0.0005 to 0.1 |
| C=C[C@@H]1C[C@]1(NC(=O)CCCCNC(=O)c1ccc(Nc2nc(NC3(c4ccc(Cl)cc4)CC3)nc(OCC(F)(F)F)n2)cc1)C(=O)NS(=O)(=O)C1CC1 [Example 2031] | – | 0.0005 to 0.1 |
| O=C(NS(=O)(=O)C1(C(=O)Nc2ccccc2)CC1)c1ccc(Nc2nc(NC3(c4ccc(Cl)cc4)CC3)nc(OCC(F)(F)F)n2)cc1 [Example 8015] | – | 0.0005 to 0.1 |

| Compound | EC50 [µM] | EC50 (class) [µM] |
| --- | --- | --- |
| Cc1cccc(S(=O)(=O)N2CCN(c3nc(Nc4ccc(C(=O)NS(=O)(=O)C5(CN(C)C)CC5)cc4)nc(OCC(F)(F)F)n3)CC2)c1 [Example 8032] | – | 1 to 5 |
| CC(C)(CNC(=O)c1ccc(Nc2nc(NC3(c4ccc(Cl)cc4)CC3)nc(OCC(F)(F)F)n2)cc1)C(=O)NS(=O)(=O)C(C)(C)C [Example 2090] | – | 0.0005 to 0.1 |
| Cc1ccccc1C(=O)N1CCN(c2nc(Nc3ccc(C(=O)NS(=O)(=O)C4(CN(C)C)CC4)cc3)nc(OCC(F)(F)F)n2)CC1 [Example 8040] | – | 1 to 5 |
| CC(C)NC(=O)OCC1(S(=O)(=O)NC(=O)c2ccc(Nc3nc(NC4(c5ccc(Cl)cc5)CC4)nc(OCC(F)(F)F)n3)cc2)CC1 [Example 1027] | – | 0.0005 to 0.1 |
| CN1CCN(CC2(S(=O)(=O)NC(=O)c3ccc(Nc4nc(NC5(c6ccc(Cl)cc6)CC5)nc(OCC(F)(F)F)n4)cc3)CC2)CC1 [Example 1020] | – | 0.0005 to 0.1 |
| CN(C)S(=O)(=O)NC(=O)[C@@]1(NC(=O)CCCNC(=O)c2ccc(Nc3nc(NC4(c5ccc(Cl)cc5)CC4)nc(OCC(F)(F)F)n3)cc2)C[C@H]1C1CC1(F)F (stereo partly drawn) [Example 2049] | – | 0.0005 to 0.1 |
| O=C(NS(=O)(=O)CCN1CCOCC1)c1ccc(Nc2nc(NC3(c4ccc(Cl)cc4)CC3)nc(OCC(F)(F)F)n2)cc1 [Example 1030] | – | 0.0005 to 0.1 |
| CC(C)S(=O)(=O)NC(=O)CCNC(=O)c1ccc(Nc2nc(NC3(c4ccc(Cl)cc4)CC3)nc(OCC(F)(F)F)n2)cc1 [Example 2020] | – | 0.0005 to 0.1 |
| CN(C)CC1(S(=O)(=O)NC(=O)c2ccc(Nc3nc(NC4(c5ccc(Cl)cc5)CC4)nc(OCC(F)(F)F)n3)cc2)CC1 [Example 1012] | 0.00025 | 0.0005 to 0.1 |
| CN(C)CC1(S(=O)(=O)NC(=O)c2ccc(Nc3nc(OCC(F)(F)F)nc(N4CCN(S(=O)(=O)c5ccccc5)CC4)n3)cc2)CC1 [Example 8031] | – | 1 to 5 |
| CC(C)S(=O)(=O)NC(=O)CCNC(=O)CCCNC(=O)c1ccc(Nc2nc(NC3(c4ccc(Cl)cc4)CC3)nc(OCC(F)(F)F)n2)cc1 [Example 2061] | – | 0.0005 to 0.1 |
| Cn1cnc(C[C@H](NC(=O)c2ccc(Nc3nc(NC4(c5ccc(Cl)cc5)CC4)nc(OCC(F)(F)F)n3)cc2)C(=O)N[C@]2(C(=O)NS(=O)(=O)C3CCC3)C[C@H]2C2CC2)c1 [Example 8020] | – | 0.0005 to 0.1 |
| CS(=O)(=O)NC(=O)CCNC(=O)c1ccc(Nc2nc(NC3(c4ccc(Cl)cc4)CC3)nc(OCC(F)(F)F)n2)cc1 [Example 2018] | – | 0.0005 to 0.1 |
| O=C(NS(=O)(=O)c1ccc(Nc2nc(NC3(c4ccc(Cl)cc4)CC3)nc(OCC(F)(F)F)n2)cc1)c1ccccc1 [Example 8005] | – | 1 to 5 |
| C=C[C@@H]1C[C@]1(NC(=O)CCCNC(=O)c1ccc(Nc2nc(NC3(c4ccc(Cl)cc4)CC3)nc(OCC(F)(F)F)n2)cc1)C(=O)NS(=O)(=O)C1CC1 [Example 2032] | 0.0013 | 0.0005 to 0.1 |
| C[C@H](NC(=O)CCCNC(=O)c1ccc(Nc2nc(NC3(c4ccc(Cl)cc4)CC3)nc(OCC(F)(F)F)n2)cc1)C(=O)NS(C)(=O)=O [Example 2054] | – | 0.0005 to 0.1 |
| COc1ccc(S(=O)(=O)N2CCN(c3nc(Nc4ccc(C(=O)NS(=O)(=O)C5(CN(C)C)CC5)cc4)nc(OCC(F)(F)F)n3)CC2)cc1 [Example 8035] | – | 1 to 5 |
| COCC1(S(=O)(=O)N(C)C(=O)c2ccc(N(C)c3nc(NC4(c5ccc(Cl)cc5)CC4)nc(OC)n3)cc2)CC1 [Example 8008] | – | 1 to 5 |
| CC(C)C(=O)NCCS(=O)(=O)NC(=O)c1ccc(Nc2nc(NC3(c4ccc(Cl)cc4)CC3)nc(OCC(F)(F)F)n2)cc1 [Example 1038] | – | 0.0005 to 0.1 |
| O=C(NS(=O)(=O)CCNC(=O)C1CC1)c1ccc(Nc2nc(NC3(c4ccc(Cl)cc4)CC3)nc(OCC(F)(F)F)n2)cc1 [Example 1039] | – | 0.0005 to 0.1 |
| O=C(NS(=O)(=O)C1(CO)CC1)c1ccc(Nc2nc(NC3(c4ccc(Cl)cc4)CC3)nc(OCC(F)(F)F)n2)cc1 [Example 1025, 4-(4-(1-(4-chlorophenyl)cyclopropylamino)-6-(2,2,2-trifluoroethoxy)-1,3,5-triazin-2-ylamino)-N-(1-(hydroxymethyl)cyclopropylsulfonyl)benzamide] | – | 0.0005 to 0.1 |
| CC(C)S(=O)(=O)NC(=O)[C@@]1(NC(=O)CCCNC(=O)c2ccc(Nc3nc(NC4(c5ccc(Cl)cc5)CC4)nc(OCC(F)(F)F)n3)cc2)C[C@H]1C1CC1 [Example 2041] | – | 0.0005 to 0.1 |
| CCC1(S(=O)(=O)NC(=O)c2ccc(Nc3nc(NC4(c5ccc(Cl)cc5)CC4)nc(OCC(F)(F)F)n3)cc2)CC1 [Example 1008] | 0.081 | 0.0005 to 0.1 |
| COCC1(S(=O)(=O)N(C)C(=O)c2ccc(Nc3nc(OC)nc(N(C)C4(c5ccc(Cl)cc5)CC4)n3)cc2)CC1 [Example 8009] | – | 1 to 5 |
| O=C(NCCS(=O)(=O)NC(=O)C1CC1)c1ccc(Nc2nc(NC3(c4ccc(Cl)cc4)CC3)nc(OCC(F)(F)F)n2)cc1 [Example 4002] | – | 0.0005 to 0.1 |
